Reference: patent US10941126B2, “Bridged bicycloalkyl-substituted aminothiazoles and their methods of use” (Temple University—Of The Commonwealth System of Higher …, priority 2017, dated 2021)

Tested on: YB5 cells
Test: GFP reactivation in YB5 cells (flow cytometry)
Assay type: cell-based, human
Text: To screen the compounds of the invention for epigenetic anti-cancer activity the YB5 cell-based system, which is derived from the human colon cancer cell line SW48, was used (Si et al., 2010, Cancer Res. 70:6968-6977; Raynal et al., 2012, Cancer Res. 72:1170-1181). YB5 cells contain a single insertion of cytomegalovirus (CMV) promoter driving green fluorescent protein (GFP) gene. GFP expression is silenced in >99.9% of YB5 cells by epigenetic mechanisms. In YB5 cells, the inserted GFP gene behaves similarly to endogenous tumor suppressor genes (TSGs) silenced by epigenetic mechanisms, and it can be reactivated by epigenetic anti-cancer agents such as DNA methylation inhibitors and/or HDAC inhibitors such as depsipeptide (Si et al., 2010, Cancer Res. 70:6968-6977; Raynal et al., 2012, Cancer Research, 72:1170-1181; Wu et al., 2008, Mol. Cell Biol, 28:3219-3235). Thus, reactivation of GFP expression and the resulting fluorescence is a measure of epigenetic anti-cancer activity.
The following procedure may be used to identify compounds of useful in the invention. YB5 cells cultured in L-15 medium supplemented with 10% fetal bovine serum and 1% P/S are treated for 24 hours with varying concentrations (50 nM, 100 nM, 500 nM, 1 μM, 5 μM, 10 μM, 25 μM, and 50 μM) of test compounds. After treatment, cells are trypsinized and re-suspended in cell culture media with propidium iodide (PI) to stain dead cells. Reactivation of GFP is measured using flow cytometry to identify the GFP positive population. The relative activities are expressed as the percent of the response compared to treatment with 20 nM HDACi depsipeptide for 24 hours. YB5 cells are grown in 1% CO2 atmosphere at 37° C.
NDL-3040 compound library consists of 3040 chemically diverse compounds that are semi-natural, derived from natural compounds, or synthetic compounds that are natural-compound-like. The small molecules were arrayed in 96-well plates as 10 mM stocks in 100% DMSO and were purchased from TimTec Inc. An aminothiazole analog library (93 small molecules) was also purchased from the same vendor and was in a 96-well plate format as 10 mM stocks in 100% DMSO. The 3040 compounds were screened at 25 μM for 24 hr. All plates were kept at −80° C. before use. YB5 cells growing in log phase (70-80% confluency) in 96-well plates were used. Each experimental 96-well plate contained 80 different compounds. Compounds were dispensed using an INTEGRA VIAFLO96 96-well pipette. After a 24 hr drug treatment, cells were trypsinized for 10 mins and re-suspended in L-15 medium containing propidium iodide (PI) to stain for dead cells. A total of 10000 cells per well were analyzed using Millipore Guava flow cytometer (EMD, Millipore). GFP positive percentage was calculated by excluding all the PI positive cells. After finishing the screening, the average Z-factor
For drug screening and dose response validations, GFP positive cells were detected by Millipore Guava flow cytometer (EMD, Millipore). Cell cycle analysis was performed using BD FACSCalibur™ by propidium iodide staining four days after drug treatment. Sub-G1 population percentage was also included to measure apoptotic cell proportion. Data were analyzed using FlowJo software version 10.2. For the cell differentiation analysis, cells were washed and stained with propidium iodide (PI), CD11 b (BD Biosciences, #562793) and the isotype control IgG (BD Biosciences, #555748). Flow cytometry analysis was performed on a Millipore Guava flow cytometer (EMD, Millipore). For the ID8 in vivo experiments, ascites was drained from 5-10 mice per group and incubated in ACK buffer (Thermo Fisher) to lyse red blood cells for 10 minutes, then washed. Ascites from each mouse was individually lysed and prepared for flow cytometry. Mononuclear cells collected were cultured for 4 hours in RPMI with 5% Fetal Bovine Serum and in the presence of Cell Stimulation Cocktail (plus protein transport inhibitors; eBioscience). […]

With Nc1nc(N[C@H]2CC3CCC2C3)sc1C(=O)c1ccccc1[N+](=O)[O-] (stereo partly shown) [MC180295] the “relative activity to Depsipeptide @ 500 nM %” value (500 nM) was 14.10%, the “relative activity to Depsipeptide @ 50 μM %” value (50 μM) was 23.32% and the Emax at 1 µM (Homo sapiens, 24 h, read-out: relative activity to Depsipeptide @ 1 μM %) was 28.8%. For the same compound, the Emax at 5 µM (Homo sapiens, 24 h, read-out: relative activity to Depsipeptide @ 5 μM %) was 65.4%, the Emax at 10 µM (Homo sapiens, 24 h, read-out: relative activity to Depsipeptide @ 10 μM %) was 72.8% and the Emax at 25 µM (Homo sapiens, 24 h, read-out: relative activity to Depsipeptide @ 25 μM %) was 73.3%. The “GFP+ cells” value (at 500 nM) was roughly 60%.
